Values of other authors, collected in patent publication US20260232695A1, “ORAL FORMULATIONS OF ABIRATERONE ACETATE AND METHOD OF MANUFACTURING THEREOF” (BDR PHARMACEUTICALS INTERNATIONAL PRIVATE LIMITED, priority 2022, published 2026).

Settings: poor solubility in water and lower lipid permeability

Q: For `CC(=O)O[C@H]1CC[C@@]2(C)C(=CC[C@@H]3[C@@H]2CC[C@]2(C)C(c4cccnc4)=CC[C@@H]32)C1` [Abiraterone Acetate, 17-(pyridin-3-yl)androsta-5,16-dien-3β-yl acetate], which BCS class is on record?
A: Its BCS class is “Class IV”.
